In patent US20040058428A1 (priority 2002, published 2004):

Tests used:
B. anthracis = type: cell-based, Bacillus anthracis
Staphylococcus aureus = type: cell-based
E. coli = type: cell-based, Escherichia coli
mold colonies = type: cell-based
[1] = test system: 13 diverse bacterial stock species; type: cell-based
B. megaterium = type: cell-based
B. subtilis = type: cell-based
B. cereus strains = type: cell-based
Klebsiella pneumoniae = type: cell-based
Citrobacter freundii = type: cell-based
B. thuringiensis = type: cell-based
[2] = test system: non-anthracis gram positive species; type: cell-based

## lysostaphin
B. anthracis
  effect on B. anthracis growth: without affecting
Staphylococcus aureus
  effect on Staphylococcus aureus growth: severely retarded

## [H]/N=C(/N)N[C@H]1[C@H](O)[C@@H](O)[C@H](O[C@@H]2O[C@@H](C)[C@](O)(C=O)[C@H]2O[C@@H]2O[C@@H](CO)[C@H](O)[C@@H](O)[C@@H]2NC)[C@@H](N/C(N)=N\[H])[C@@H]1O [streptomycin]
E. coli
  growth of E. coli strains: inhibited

## C[C@@H]1C[C@@H]([C@H](O)CC2CC(=O)NC(=O)C2)C(=O)[C@@H](C)C1 [cycloheximide]
Mold colonies
  effect on mold contamination: eliminated all mold contamination
[1]
  effect on pattern of bacterial growth: did not alter the pattern of bacterial growth

## CO/N=C(\C(=O)N[C@@H]1C(=O)N2C(C(=O)O)=C(COC(C)=O)CS[C@H]12)c1csc(N)n1 [cefotaxime]
B. anthracis
  appearance of B. anthracis colonies: failed to appear
B. megaterium
  growth of B. megaterium: inhibited
B. subtilis
  growth of B. subtilis: inhibited
B. cereus strains
  growth of some strains of B. cereus: grow to form colonies
Staphylococcus aureus
  growth of Staphylococcus aureus: inhibited
E. coli
  growth of E. coli: inhibited
Klebsiella pneumoniae
  growth of Klebsiella pneumoniae: inhibited
Citrobacter freundii
  growth of Citrobacter freundii: inhibited
B. thuringiensis
  growth of B. thuringiensis: inhibited

## polymyxin B sulfate
E. coli
  growth of E. coli strains: not inhibited

## CC(=O)[O-].[Tl+] [thallous acetate]
B. anthracis
  B. anthracis growth and colony formation: allowed B. anthracis to grow readily and form colonies
  delay of appearance of visible B. anthracis colonies: delayed approximately one day
[2]
  restriction of growth of non-anthracis gram positive species including some B. cereus strains: not sufficiently restrictive
  restriction of non-anthracis gram positive spore forming species (including some B. cereus strains): adequately restrictive
Staphylococcus aureus
  susceptibility of Staphylococcus aureus: completely resistant

## O=C([O-])CN(CCN(CC(=O)O)CC(=O)O)CC(=O)[O-].[Na+].[Na+] [EDTA, disodium ethylenediaminetetraacetate]
B. anthracis
  effect on B. anthracis growth: undesirably inhibiting
Staphylococcus aureus
  effect on Staphylococcus aureus growth: no effect
